Literature values in PMC5340309 (Biomacromolecules, 2016).

Tests used:
Settings in all cases: included for comparison
[1] = tested on: Methicillin-resistant S. epidermidis (MRSE, RP62A)
[2] = tested on: P. aeruginosa (ATCC27853)
[3] = tested on: K. pneumoniae (ATCC 13383)
[4] = tested on: Methicillin-resistant S. aureus (MRSA, ATCC 33591)

pexiganan
MIC MRSE (Gram+) [1]: 8 µg/mL
MIC P. aeruginosa (Gram−) [2]: 16 µg/mL
MIC K. pneumonia (Gram−) [3]: 32 µg/mL
MIC MRSA (Gram+) [4]: 16 µg/mL
